Literature values in patent US20080247966A1, “Compositions and Methods to Counteract Oral Malodour” (GIVAUDAN SA, priority 2005, published 2008).

Tested on: microorganisms such as yeasts
Conditions: oral care compositions with C1-C4 lower alcohols, WO 99/51093

## CCCCCCCCO [octanol, octan-1-ol]
  effect on microorganisms such as yeasts: no effect
